# Key:
# [1] = Compound stability in human liver microsomes; format: in vitro ADME; conditions: for half-life at 5 μM: compound 5 μM, NADPH 1.0 mM, 37° C.; for CLint scaled at 5 μM: in vivo CLint extrapolated
# Experimental: (§1) Human or rat liver microsomes incubations were conducted in duplicate in polypropylene tubes. The typical incubation mixtures consisted of human or rat liver microsomes (0.5 mg protein/mL), compounds of interest (5 μM) and NADPH (1.0 mM) in a total volume of 200 μL potassium phosphate buffer (PBS, 100 mM, pH 7.4). Compounds were dissolved in DMSO and diluted with PBS such that the final concentration of DMSO was 0.05%. The enzymatic reactions were commenced with the addition of protein after a 3-min preincubation and incubated in a water bath open to the air at 37° C. Reactions were terminated at various time points (0, 5, 10, 15, 30, 60 min) by adding equal volume of ice-cold acetonitrile. The samples were stored at −80° C. until LC/MS/MS assays.
# (§2) The concentrations of compounds in the incubation mixtures of human or rat liver microsomes were determined by a LC/MS/MS method. The ranges of the linearity in the concentration range were determined for each tested compounds.
# (§3) A parallel incubation was performed using denatured microsomes as the negative control, and reactions were terminated at various time points (0, 15, 60 min) after incubation at 37° C.
# (§4) Dextromethorphan (70 μM) was selected as the positive control, and reactions were terminated at various time points (0, 5, 10, 15, 30, 60 min) after incubation at 37° C. Both positive and negative control samples were included in each assay to ensure the integrity of the microsomal incubation system.
# (§5) The concentrations of compounds in human or rat liver microsome incubations were plotted as a percentage of the relevant zero time point control for each reaction. The in vivo CLint were extrapolated (ref.: Naritomi, Y.; Terashita, S.; Kimura, S.; Suzuki, A.; Kagayama, A.; and Sugiyama, Y.; Prediction of human hepatic clearance from in vivo animal experiments and in vitro metabolic studies with liver microsomes from animals and humans. Drug Metab. Dispos., 2001, 29: 1316-1324).
# [2] = Compound stability in rat liver microsomes; format: in vitro ADME; conditions: for half-life at 5 μM: compound 5 μM, NADPH 1.0 mM, 37° C.; for CLint scaled at 5 μM: in vivo CLint extrapolated
# Experimental: as §1, §2, §3, §4, §5
# [3] = Pharmacokinetics after intravenous and oral administration in rats; format: in vivo; conditions: for Clearance (CL) after iv dosing / AUC(0-t) / half-life / Vd: dose 1 mg/kg (Ex. 27: 0.72 mg/kg), iv dosing; for F: oral bioavailability; for AUC(0-t) / half-life / Vd: rat, plasma; for Vd: read-out: Vss
# Experimental: The LC/MS/MS system used in the analysis consists of an Agilent 1200 Series vacuum degasser, binary pump, well-plate autosampler, thermostatted column compartment, the Agilent G6430 Triple Quadrupole Mass Spectrometer with an electrosprayionization (ESI) source. Quantitative analysis was carried out using MRM mode. The parameters for MRM transitions are in the Table A.
# An Agilent XDB-C18, 2.1×30 mm, 3.5 μM column was used for the analysis. 5 μL of the samples were injected. Analysis condition: The mobile phase was 0.1% formic acid in water (A) and 0.1% formic acid in methanol (B). The flow rate was 0.4 mL/min. And the gradient of Mobile phase was in the Table B.
# Alternatively, an Agilent 6330 series LC/MS/MS spectrometer equipped with G1312A binary pumps, a G1367A autosampler and a G1314C UV detector were used in the analysis. An ESI source was used on the LC/MS/MS spectrometer. The analysis was done in positive ion mode as appropriate and the MRM transition for each analyte was optimized using standard solution. A Capcell MP-C18 100×4.6 mm I.D., […] column (Phenomenex, Torrance, Calif., USA) was used during the analysis. The mobile phase was 5 mM ammonia acetate, 0.1% MeOH in water (A): 5 mM ammonia acetate, 0.1% MeOH in acetonitrile (B) (70:30, v/v). The flow rate was 0.6 mL/min. Column was maintained at ambient temperature. 20 μL of the samples were injected.
# The compounds disclosed herein are assessed in pharmacokinetic studies in mice, rats, dogs or monkeys. The compounds are administered as a water solution, 2% HPMC+1% TWEEN®80 in water solution, 5% DMSO+5% solution in saline, 4% MC suspension or capsule. For the intravenous administration, the animals are generally given at 1 or 2 mg/kg dose. For the oral (p.o.) dosing, mice and rats are generally given 5 or 10 mg/kg dose, and dogs and monkeys are generally given 10 mg/kg dose. The blood samples (0.3 mL) are drawn at 0.25, 0.5, 1.0, 2.0, 3.0, 4.0, 6.0, 8.0, 12 and 24 h time points or 0.083, 0.25, 0.5, 1.0, 2.0, 4.0, 6.0, 8.0 and 24 h time points and centrifuged at 3,000 or 4000 rpm for 2 to 10 min. The plasma solutions are collected, and stored at −20° C. or −70° C. until analyzed by LC/MS/MS as described above.
# [4] = target: JAK1 (h) (Homo sapiens (Human), UniProt P23458); test: JAK1 kinase assay (33P-ATP filter binding, Millipore); format: biochemical
# Experimental: Kinase assays can be performed by measurement of incorporation of γ-^33P ATP into immobilized myelin basic protein (MBP). High binding white 384 well plates (Greiner) are coated with MBP (Sigma #M−1891) by incubation of 60 μL/well of 20 μg/mL MBP in Tris-buffered saline (TBS; 50 mM Tris pH 8.0, 138 mM NaCl, 2.7 mM KCl) for 24 h at 4° C. Plates are washed 3× with 100 μL TBS. Kinase reactions are carried out in a total volume of 34 μL in kinase buffer (5 mM Hepes pH 7.6, 15 mM NaCl, 0.01% bovine gamma globulin (Sigma #I-5506), 10 mM MgCl2, 1 mM DTT, 0.02% TritonX-100). Compound dilutions are performed in DMSO and added to assay wells to a final DMSO concentration of 1%. Each data point is measured in duplicate, and at least two duplicate assays are performed for each individual compound determination. Enzyme is added to final concentrations of 10 nM or 20 nM, for example. A mixture of unlabeled ATP and γ-^33P ATP is added to start the reaction (2×10^6 cpm of γ-^33P ATP per well (3000 Ci/mmole) and 10 μM unlabeled ATP, typically. The reactions are carried out for 1 h at room temperature with shaking. Plates are washed 7× with TBS, followed by the addition of 50 μL/well scintillation fluid (Wallac). Plates are read using a Wallac Trilux counter. This is only one format of such assays; various other formats are possible, as known to one skilled in the art.
# The above assay procedure can be used to determine the IC50 for inhibition and/or the inhibition constant, Ki. The IC50 is defined as the concentration of compound required to reduce the enzyme activity by 50% under the condition of the assay. The IC50 value is estimated by preparing a 10 point curve using a 1/2 log dilution series (for example, a typical curve may be prepared using the following compound concentrations: 3 μM, 1 μM, 0.3 μM, 0.1 μM, 0.03 μM, 0.01 μM, 0.003 μM, 0.001 μM, 0.0003 μM and 0 μM).
# The kinase assays described herein were performed at Millipore UK Ltd, Dundee Technology Park, Dundee DD2 1SW, UK.
# [5] = human, liver microsomes, pH 7.4, Human liver microsomes 0.5 mg protein/mL
# [6] = human, liver microsomes, pH 7.4, Human liver microsomes
# [7] = rat, liver microsomes, pH 7.4, Rat liver microsomes 0.5 mg protein/mL
# [8] = rat, liver microsomes, pH 7.4, Rat liver microsomes
# [9] = pH 7.4, Human liver microsomes 0.5 mg protein/mL
# [10] = pH 7.4, Rat liver microsomes 0.5 mg protein/mL
# Chain of JAK1 (h) (P23458 whole entry): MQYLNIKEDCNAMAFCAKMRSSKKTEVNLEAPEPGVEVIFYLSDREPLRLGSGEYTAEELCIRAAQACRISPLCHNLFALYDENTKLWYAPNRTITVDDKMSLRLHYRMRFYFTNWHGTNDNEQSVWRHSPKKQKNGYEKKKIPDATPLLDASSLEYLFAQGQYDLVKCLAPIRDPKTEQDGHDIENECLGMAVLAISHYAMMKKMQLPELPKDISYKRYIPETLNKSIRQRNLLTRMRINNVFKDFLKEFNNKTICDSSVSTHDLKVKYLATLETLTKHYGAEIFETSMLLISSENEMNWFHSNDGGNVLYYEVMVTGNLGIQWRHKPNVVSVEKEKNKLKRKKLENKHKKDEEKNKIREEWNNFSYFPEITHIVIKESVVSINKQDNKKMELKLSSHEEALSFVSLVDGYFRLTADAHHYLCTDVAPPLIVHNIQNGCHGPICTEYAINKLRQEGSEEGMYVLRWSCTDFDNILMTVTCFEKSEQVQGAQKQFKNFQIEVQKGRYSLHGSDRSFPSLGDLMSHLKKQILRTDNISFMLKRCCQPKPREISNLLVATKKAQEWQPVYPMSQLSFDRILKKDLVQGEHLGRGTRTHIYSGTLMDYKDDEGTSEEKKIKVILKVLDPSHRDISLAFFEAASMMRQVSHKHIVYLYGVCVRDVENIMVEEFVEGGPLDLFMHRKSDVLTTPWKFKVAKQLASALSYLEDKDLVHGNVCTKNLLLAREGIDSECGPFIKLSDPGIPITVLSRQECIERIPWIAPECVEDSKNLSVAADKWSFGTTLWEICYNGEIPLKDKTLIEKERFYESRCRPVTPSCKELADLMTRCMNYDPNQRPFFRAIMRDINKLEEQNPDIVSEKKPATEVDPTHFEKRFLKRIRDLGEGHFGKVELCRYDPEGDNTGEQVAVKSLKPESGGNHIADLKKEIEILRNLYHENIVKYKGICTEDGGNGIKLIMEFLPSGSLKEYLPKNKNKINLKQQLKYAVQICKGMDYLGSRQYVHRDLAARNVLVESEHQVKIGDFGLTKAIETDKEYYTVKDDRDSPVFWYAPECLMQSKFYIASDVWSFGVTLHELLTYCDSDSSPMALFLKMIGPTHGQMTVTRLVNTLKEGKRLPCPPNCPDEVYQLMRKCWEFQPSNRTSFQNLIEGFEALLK
Structure (SMILES),"half-life at 5 μM [1, 9] [min]","CLint scaled at 5 μM ([1]; pH 7.4, Human liver microsomes) [mL/min/kg]","half-life at 5 μM [2, 10] [min]","CLint scaled at 5 μM ([2]; pH 7.4, Rat liver microsomes) [mL/min/kg]",IC50 [4] [nM],"half-life at 5 μM [1, 5] [min]","CLint scaled at 5 μM [1, 6] [mL/min/kg]","half-life at 5 μM [2, 7] [min]","CLint scaled at 5 μM [2, 8] [mL/min/kg]",Clearance (CL) after iv dosing [3] [L/h/kg],F [3] [%],AUC(0-t) [3] [ng·h/mL],half-life [3] [min],Vd [3] [L/kg]
"CN(c1nc(Nc2cnn(C)c2)ncc1Cl)C1CCC2(CCNC2)CC1 (single isomer, unassigned) [Ex. 3.10A, 5-chloro-N^4-methyl-N^2-(1-methyl-1H-pyrazol-4-yl)-N^4-(2-azaspiro[4.5]decan-8-yl)pyrimidine-2,4-diamine]",–,–,–,–,–,315,5.53,12.8,194,4.21,19.06,216,163,13.5
"CN(c1ccnc(Nc2cnn(C)c2)n1)C1CNCC12CCCC2 (stereo not drawn) [Ex. 1, N^4-methyl-N^2-(1-methyl-1H-pyrazol-4-yl)-N^4-(2-azaspiro[4.4]nonan-4-yl) pyrimidine-2,4-diamine]",183,9.49,269,9.23,–,–,–,–,–,9.42,44.39,103,226,40.3
"Cn1cc(Nc2nccc(NC3CCC4(CC3)CCN(C(=O)CC#N)C4)n2)cn1 (stereo not drawn) [Ex. 6, 3-(8-((2-((1-methyl-1H-pyrazol-4-yl)amino)pyrimidin-4-yl)amino)-2-azaspiro[4.5]decan-2-yl)-3-oxopropanenitrile]",–,–,–,–,55,–,–,–,–,–,–,–,–,–
"Cc1cnc(Nc2cnn(C)c2)nc1NC1CN(C(=O)CC#N)CC12CCCC2 (stereo not drawn) [Ex. 8, 3-(4-((5-methyl-2-((1-methyl-1H-pyrazol-4-yl)amino)pyrimidin-4-yl)amino)-2-azaspiro[4.4]nonan-2-yl)-3-oxopropanenitrile]",–,–,–,–,11,–,–,–,–,3.70,17.5,272,52.8,2.85
"Cc1cnc(Nc2cnn(C)c2)nc1N(C)C1CCC2(CC1)CCN(C(=O)CC#N)CC2 [Ex. 23, 3-(9-(methyl(5-methyl-2-((1-methyl-1H-pyrazol-4-yl)amino)pyrimidin-4-yl)amino)-3-azaspiro[5.5]undecan-3-yl)-3-oxopropanenitrile]",–,–,–,–,–,125,13.9,4.5,552,–,–,–,–,–
"COc1cnc(Nc2cc(C3CC3)[nH]n2)nc1NC1CC2CN(C(=O)CC#N)CC2C1 (stereo not drawn) [Ex. 52, 3-(5-((2-((5-cyclopropyl-1H-pyrazol-3-yl)amino)-5-methoxypyrimidin-4-yl)amino)hexahydrocyclopenta[c]pyrrol-2(1H)-yl)-3-oxopropanenitrile]",68.3,25.4,16,155,–,–,–,–,–,5.05,16.5,197,19.2,1.6
"N#CCC(=O)N1CCC2(CCC(Nc3nc(Nc4cc(C5CC5)[nH]n4)ncc3Cl)CC2)CC1 [Ex. 54, 3-(9-((5-chloro-2-((5-cyclopropyl-1H-pyrazol-3-yl)amino)pyrimidin-4-yl)amino)-3-azaspiro[5.5]undecan-3-yl)-3-oxopropanenitrile]",–,–,–,–,–,38.8,44.8,31.6,78.6,–,–,–,–,–

# Second part, led by results:
"half-life at 5 μM [1, 9] [min]","CLint scaled at 5 μM ([1]; pH 7.4, Human liver microsomes) [mL/min/kg]","half-life at 5 μM [2, 10] [min]","CLint scaled at 5 μM ([2]; pH 7.4, Rat liver microsomes) [mL/min/kg]",IC50 [4] [nM],Structure (SMILES),"half-life at 5 μM [1, 5] [min]","CLint scaled at 5 μM [1, 6] [mL/min/kg]","half-life at 5 μM [2, 7] [min]","CLint scaled at 5 μM [2, 8] [mL/min/kg]",Clearance (CL) after iv dosing [3] [L/h/kg],F [3] [%],AUC(0-t) [3] [ng·h/mL],half-life [3] [min],Vd [3] [L/kg]
266,6.53,23.1,108,–,"CC(=O)N1CC2CC(Nc3nc(Nc4cc(C5CC5)[nH]n4)ncc3Cl)CC2C1 (stereo not drawn) [Ex. 53, 1-(5-((5-chloro-2-((5-cyclopropyl-1H-pyrazol-3-yl)amino)pyrimidin-4-yl)amino)hexahydrocyclopenta[c]pyrrol-2(1H)-yl)ethanone]",–,–,–,–,3.31,33.0,296,61.2,2.46
–,–,–,–,16,"Cc1nn(C)cc1Nc1ncc(Cl)c(NC2CCC3(CC2)CCN(C(=O)CC#N)CC3)n1 [Ex. 57, 3-(9-((5-chloro-2-((1,3-dimethyl-1H-pyrazol-4-yl)amino)pyrimidin-4-yl)amino)-3-azaspiro[5.5]undecan-3-yl)-3-oxopropanenitrile]",–,–,–,–,–,–,–,–,–
–,–,–,–,42,"CC(=O)N1CC2CC(Nc3nc(Nc4cnn(C)c4)ncc3C)CC2C1 (stereo not drawn) [Ex. 61, 1-(5-((5-methyl-2-((1-methyl-1H-pyrazol-4-yl)amino)pyrimidin-4-yl)amino)hexahydrocyclopenta[c]pyrrol-2(1H)-yl)ethanone]",–,–,–,–,–,–,–,–,–
296,5.87,26.4,94.1,–,"Cn1cc(Nc2ncc(C#N)c(NC3CC4CN(C(=O)CC#N)CC4C3)n2)cn1 (stereo not drawn) [Ex. 67, 4-((2-(2-cyanoacetyl)octahydrocyclopenta[c]pyrrol-5-yl)amino)-2-((1-methyl-1H-pyrazol-4-yl)amino)pyrimidine-5-carbonitrile]",–,–,–,–,–,–,–,–,–
